According to article PMC6409085, “Three odorant-binding proteins are involved in the behavioral response of Sogatella furcifera to rice plant volatiles” (PeerJ, 2019):
Several values for one entry are separate records, joined by “and”; a condition that tells them apart may be missing. Equal entries are not always repeated.

Assays:
SfurOBP1 = SfurOBP1 (Sogatella furcifera, UniProt V5T8N5); assay: biochemical; format: binding; conditions: for Fluorescence competitive binding assay, fluorescence intensity: OBP1, three replicate columns
Method in brief: (§1)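 Protein 2.0 µM + 1-NPN 2.0 µM, 50 mM Tris-HCl pH 7.4; competitor odorants 2, 4 … 20 µM final; read 2 min post-addition, ex 337/em 390–490 nm; n=3. K1-NPN from 1-NPN titration/Scatchard; Ki from IC50 corrected for free 1-NPN.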

SfurOBP3 = SfurOBP3 (Sogatella furcifera, UniProt V5T818); assay: biochemical; format: binding; conditions: for Fluorescence competitive binding assay, fluorescence intensity: OBP3, three replicate columns
Method in brief: as §1

SfurOBP11 = SfurOBP11 (Sogatella furcifera, UniProt V5T6E3); assay: biochemical; format: binding
Method in brief: as §1

SfurOBP2 = SfurOBP2 (Sogatella furcifera, UniProt V5T759); assay: biochemical; format: binding
Method in brief: as §1

S. furcifera adults = assay: Y-tube olfactometer behavioral trials; format: in vivo, Sogatella furcifera; conditions: odorant 50 µL/L vs hexane; adults
Method in brief: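 Single S. furcifera adults (2 days post-emergence, starved 0.5 h) chose between odorant (100 µL of 50 µL/L on filter paper) and hexane control in a glass Y-tube, charcoal-filtered humidified air 300 mL/min per arm, 25 ± 1 °C, 50% RH. Choice scored if insect passed half an arm and stayed >1 min within 10 min; 45 insects per compound, chi-squared test.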

SfurOBP3, sequence (V5T818 entry or part of it): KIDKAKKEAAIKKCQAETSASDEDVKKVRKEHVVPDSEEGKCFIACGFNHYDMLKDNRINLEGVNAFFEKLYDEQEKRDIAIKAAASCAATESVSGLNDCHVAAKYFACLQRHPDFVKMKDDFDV
SfurOBP11, sequence (V5T6E3 entry or part of it): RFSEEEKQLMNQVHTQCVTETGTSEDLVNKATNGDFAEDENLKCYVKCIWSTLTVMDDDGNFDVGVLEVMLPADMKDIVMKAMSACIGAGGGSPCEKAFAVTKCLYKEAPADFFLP
SfurOBP1, sequence (V5T8N5 entry or part of it): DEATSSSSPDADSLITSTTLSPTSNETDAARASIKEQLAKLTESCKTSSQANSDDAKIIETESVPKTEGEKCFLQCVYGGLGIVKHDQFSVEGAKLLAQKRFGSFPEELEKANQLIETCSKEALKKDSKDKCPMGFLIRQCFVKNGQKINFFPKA
SfurOBP2, sequence (V5T759 entry or part of it): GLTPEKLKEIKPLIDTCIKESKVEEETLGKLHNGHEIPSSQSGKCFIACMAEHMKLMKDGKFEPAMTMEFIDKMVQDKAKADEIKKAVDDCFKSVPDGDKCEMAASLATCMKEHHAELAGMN

## CCC/C=C/CO [(E)-2-hexenol]
SfurOBP1
  IC50: > 20 µM
SfurOBP1; ligand concentration 2 (μM)
  Fluorescence competitive binding assay, fluorescence intensity: 5821 and 6205 and 6589
SfurOBP1; ligand concentration 4 (μM)
  Fluorescence competitive binding assay, fluorescence intensity: 7444 and 7124 and 7270
SfurOBP1; ligand concentration 6 (μM)
  Fluorescence competitive binding assay, fluorescence intensity: 8585 and 7896 and 9273
SfurOBP1; ligand concentration 8 (μM)
  Fluorescence competitive binding assay, fluorescence intensity: 8091 and 7978 and 7865
SfurOBP1; ligand concentration 10 (μM)
  Fluorescence competitive binding assay, fluorescence intensity: 8122 and 7477 and 6720
SfurOBP1; ligand concentration 12 (μM)
  Fluorescence competitive binding assay, fluorescence intensity: 5971 and 6877 and 6423
SfurOBP1; ligand concentration 14 (μM)
  Fluorescence competitive binding assay, fluorescence intensity: 6112 and 6019 and 6107
SfurOBP1; ligand concentration 16 (μM)
  Fluorescence competitive binding assay, fluorescence intensity: 6252 and 5805 and 6056
SfurOBP1; ligand concentration 18 (μM)
  Fluorescence competitive binding assay, fluorescence intensity: 8503 and 8229 and 10760
SfurOBP1; ligand concentration 20 (μM)
  Fluorescence competitive binding assay, fluorescence intensity: 7495 and 8100 and 7787
SfurOBP3
  IC50: > 20 µM
SfurOBP3; ligand concentration 2
  Fluorescence competitive binding assay, fluorescence intensity: 55419 and 52631 and 56435
SfurOBP3; ligand concentration 4
  Fluorescence competitive binding assay, fluorescence intensity: 52848 and 53720 and 53070
SfurOBP3; ligand concentration 6
  Fluorescence competitive binding assay, fluorescence intensity: 56485 and 54348 and 51437
SfurOBP3; ligand concentration 8
  Fluorescence competitive binding assay, fluorescence intensity: 53820 and 44741 and 53024
SfurOBP3; ligand concentration 10
  Fluorescence competitive binding assay, fluorescence intensity: 50999 and 49511 and 49866
SfurOBP3; ligand concentration 12
  Fluorescence competitive binding assay, fluorescence intensity: 51314 and 45497 and 46649
SfurOBP3; ligand concentration 14
  Fluorescence competitive binding assay, fluorescence intensity: 46992 and 46379 and 46282
SfurOBP3; ligand concentration 16
  Fluorescence competitive binding assay, fluorescence intensity: 39521 and 39562 and 39433
SfurOBP3; ligand concentration 18
  Fluorescence competitive binding assay, fluorescence intensity: 45227 and 50180 and 45511
SfurOBP3; ligand concentration 20
  Fluorescence competitive binding assay, fluorescence intensity: 47692 and 45313 and 40014
SfurOBP11
  IC50: > 20 µM
SfurOBP11; ligand concentration 2, replicate 1
  Fluorescence intensity, fluorescence competitive binding assay, OBP11: 34795
SfurOBP11; ligand concentration 2, replicate 2
  Fluorescence intensity, fluorescence competitive binding assay, OBP11: 32362
SfurOBP11; ligand concentration 2, replicate 3
  Fluorescence intensity, fluorescence competitive binding assay, OBP11: 33570
SfurOBP11; ligand concentration 4, replicate 1
  Fluorescence intensity, fluorescence competitive binding assay, OBP11: 31605
SfurOBP11; ligand concentration 4, replicate 2
  Fluorescence intensity, fluorescence competitive binding assay, OBP11: 31826
SfurOBP11; ligand concentration 4, replicate 3
  Fluorescence intensity, fluorescence competitive binding assay, OBP11: 31807
SfurOBP11; ligand concentration 6, replicate 1
  Fluorescence intensity, fluorescence competitive binding assay, OBP11: 29600
SfurOBP11; ligand concentration 6, replicate 2
  Fluorescence intensity, fluorescence competitive binding assay, OBP11: 28910
SfurOBP11; ligand concentration 6, replicate 3
  Fluorescence intensity, fluorescence competitive binding assay, OBP11: 29255
SfurOBP11; ligand concentration 8, replicate 1
  Fluorescence intensity, fluorescence competitive binding assay, OBP11: 27040
SfurOBP11; ligand concentration 8, replicate 2
  Fluorescence intensity, fluorescence competitive binding assay, OBP11: 29546
SfurOBP11; ligand concentration 8, replicate 3
  Fluorescence intensity, fluorescence competitive binding assay, OBP11: 25961
SfurOBP11; ligand concentration 10, replicate 1
  Fluorescence intensity, fluorescence competitive binding assay, OBP11: 25687
SfurOBP11; ligand concentration 10, replicate 2
  Fluorescence intensity, fluorescence competitive binding assay, OBP11: 25600
SfurOBP11; ligand concentration 10, replicate 3
  Fluorescence intensity, fluorescence competitive binding assay, OBP11: 25774
SfurOBP11; ligand concentration 12, replicate 1
  Fluorescence intensity, fluorescence competitive binding assay, OBP11: 25617
SfurOBP11; ligand concentration 12, replicate 2
  Fluorescence intensity, fluorescence competitive binding assay, OBP11: 23726
SfurOBP11; ligand concentration 12, replicate 3
  Fluorescence intensity, fluorescence competitive binding assay, OBP11: 24242
SfurOBP11; ligand concentration 14, replicate 1
  Fluorescence intensity, fluorescence competitive binding assay, OBP11: 22896
SfurOBP11; ligand concentration 14, replicate 2
  Fluorescence intensity, fluorescence competitive binding assay, OBP11: 21710
SfurOBP11; ligand concentration 14, replicate 3
  Fluorescence intensity, fluorescence competitive binding assay, OBP11: 22816
SfurOBP11; ligand concentration 16, replicate 1
  Fluorescence intensity, fluorescence competitive binding assay, OBP11: 19721
SfurOBP11; ligand concentration 16, replicate 2
  Fluorescence intensity, fluorescence competitive binding assay, OBP11: 20050
SfurOBP11; ligand concentration 16, replicate 3
  Fluorescence intensity, fluorescence competitive binding assay, OBP11: 20211
SfurOBP11; ligand concentration 18, replicate 1
  Fluorescence intensity, fluorescence competitive binding assay, OBP11: 19470
SfurOBP11; ligand concentration 18, replicate 2
  Fluorescence intensity, fluorescence competitive binding assay, OBP11: 19537
SfurOBP11; ligand concentration 18, replicate 3
  Fluorescence intensity, fluorescence competitive binding assay, OBP11: 20671
SfurOBP11; ligand concentration 20, replicate 1
  Fluorescence intensity, fluorescence competitive binding assay, OBP11: 20038
SfurOBP11; ligand concentration 20, replicate 2
  Fluorescence intensity, fluorescence competitive binding assay, OBP11: 19843
SfurOBP11; ligand concentration 20, replicate 3
  Fluorescence intensity, fluorescence competitive binding assay, OBP11: 19956
SfurOBP2
  IC50: > 20 µM
SfurOBP2; ligand concentration 2 (unit not given), replicate column 1 of 3
  Fluorescence competitive binding assay, OBP2 (raw fluorescence reading): 18290
SfurOBP2; ligand concentration 2 (unit not given), replicate column 2 of 3
  Fluorescence competitive binding assay, OBP2 (raw fluorescence reading): 18447
SfurOBP2; ligand concentration 2 (unit not given), replicate column 3 of 3
  Fluorescence competitive binding assay, OBP2 (raw fluorescence reading): 18531
SfurOBP2; ligand concentration 4 (unit not given), replicate column 1 of 3
  Fluorescence competitive binding assay, OBP2 (raw fluorescence reading): 17418
SfurOBP2; ligand concentration 4 (unit not given), replicate column 2 of 3
  Fluorescence competitive binding assay, OBP2 (raw fluorescence reading): 17308
SfurOBP2; ligand concentration 4 (unit not given), replicate column 3 of 3
  Fluorescence competitive binding assay, OBP2 (raw fluorescence reading): 17228
SfurOBP2; ligand concentration 6 (unit not given), replicate column 1 of 3
  Fluorescence competitive binding assay, OBP2 (raw fluorescence reading): 16794
SfurOBP2; ligand concentration 6 (unit not given), replicate column 2 of 3
  Fluorescence competitive binding assay, OBP2 (raw fluorescence reading): 16314
SfurOBP2; ligand concentration 6 (unit not given), replicate column 3 of 3
  Fluorescence competitive binding assay, OBP2 (raw fluorescence reading): 16504
SfurOBP2; ligand concentration 8 (unit not given), replicate column 1 of 3
  Fluorescence competitive binding assay, OBP2 (raw fluorescence reading): 15464
SfurOBP2; ligand concentration 8 (unit not given), replicate column 2 of 3
  Fluorescence competitive binding assay, OBP2 (raw fluorescence reading): 15780
SfurOBP2; ligand concentration 8 (unit not given), replicate column 3 of 3
  Fluorescence competitive binding assay, OBP2 (raw fluorescence reading): 16125
SfurOBP2; ligand concentration 10 (unit not given), replicate column 1 of 3
  Fluorescence competitive binding assay, OBP2 (raw fluorescence reading): 15191
SfurOBP2; ligand concentration 10 (unit not given), replicate column 2 of 3
  Fluorescence competitive binding assay, OBP2 (raw fluorescence reading): 14875
SfurOBP2; ligand concentration 10 (unit not given), replicate column 3 of 3
  Fluorescence competitive binding assay, OBP2 (raw fluorescence reading): 15159
SfurOBP2; ligand concentration 12 (unit not given), replicate column 1 of 3
  Fluorescence competitive binding assay, OBP2 (raw fluorescence reading): 14300
SfurOBP2; ligand concentration 12 (unit not given), replicate column 2 of 3
  Fluorescence competitive binding assay, OBP2 (raw fluorescence reading): 14543
SfurOBP2; ligand concentration 12 (unit not given), replicate column 3 of 3
  Fluorescence competitive binding assay, OBP2 (raw fluorescence reading): 14192
SfurOBP2; ligand concentration 14 (unit not given), replicate column 1 of 3
  Fluorescence competitive binding assay, OBP2 (raw fluorescence reading): 13523
SfurOBP2; ligand concentration 14 (unit not given), replicate column 2 of 3
  Fluorescence competitive binding assay, OBP2 (raw fluorescence reading): 13764
SfurOBP2; ligand concentration 14 (unit not given), replicate column 3 of 3
  Fluorescence competitive binding assay, OBP2 (raw fluorescence reading): 13447
SfurOBP2; ligand concentration 16 (unit not given), replicate column 1 of 3
  Fluorescence competitive binding assay, OBP2 (raw fluorescence reading): 12677
SfurOBP2; ligand concentration 16 (unit not given), replicate column 2 of 3
  Fluorescence competitive binding assay, OBP2 (raw fluorescence reading): 12355
SfurOBP2; ligand concentration 16 (unit not given), replicate column 3 of 3
  Fluorescence competitive binding assay, OBP2 (raw fluorescence reading): 12095
SfurOBP2; ligand concentration 18 (unit not given), replicate column 1 of 3
  Fluorescence competitive binding assay, OBP2 (raw fluorescence reading): 11796
SfurOBP2; ligand concentration 18 (unit not given), replicate column 2 of 3
  Fluorescence competitive binding assay, OBP2 (raw fluorescence reading): 11817
SfurOBP2; ligand concentration 18 (unit not given), replicate column 3 of 3
  Fluorescence competitive binding assay, OBP2 (raw fluorescence reading): 11503
SfurOBP2; ligand concentration 20 (unit not given), replicate column 1 of 3
  Fluorescence competitive binding assay, OBP2 (raw fluorescence reading): 11621
SfurOBP2; ligand concentration 20 (unit not given), replicate column 2 of 3
  Fluorescence competitive binding assay, OBP2 (raw fluorescence reading): 11220
SfurOBP2; ligand concentration 20 (unit not given), replicate column 3 of 3
  Fluorescence competitive binding assay, OBP2 (raw fluorescence reading): 11057
S. furcifera adults
  number of insects choosing hexane arm: 9
  number of insects choosing volatilies arm: 8
  number of insects failed (no choice): 24
